In patent US10131652B2, “Pyrimidinyloxy benzene derivatives as herbicides” (E. I. DU PONT DE NEMOURS AND COMPANY, priority 2014, dated 2018):

Legend:
Assay in all cases: Test F pre-/postemergence plant response
Type in all cases: in vivo
[1] = system: barnyardgrass (Echinochloa crus-galli); details: Echinochloa crus-galli, pre-emergence, scale 0 to 100, read-out: Plant response rating, Barnyardgrass
In short: (§1)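 Two application timings were run side by side: soil surface treatment of freshly planted seed in silt loam, and foliar treatment of seedlings 2 to 18 cm high. Plants stayed in the greenhouse 14 to 21 days before visual 0–100 injury scoring against controls.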

[2] = system: fall panicum (Panicum dichotomiflorum); details: Panicum dichotomiflorum, pre-emergence, scale 0 to 100, read-out: Plant response rating, Panicum, Fall
In short: as §1

[3] = system: surinam grass (Brachiaria decumbens); details: Urochloa decumbens, pre-emergence, scale 0 to 100, read-out: Plant response rating, Surinam Grass
In short: as §1

[4] = system: waterhemp (common waterhemp, Amaranthus rudis); details: Amaranthus tuberculatus, pre-emergence, scale 0 to 100, read-out: Plant response rating, Waterhemp
In short: as §1

[5] = system: green foxtail (Setaria viridis); details: Setaria viridis, pre-emergence, Preemergence, scale 0 to 100, read-out: Plant response rating, Foxtail, Green
In short: as §1

soybean (Glycine max) = details: Glycine max, pre-emergence, scale 0 to 100, read-out: Plant response rating, Soybean
In short: as §1

[6] = system: johnsongrass (Sorghum halepense); details: Sorghum halepense, pre-emergence, scale 0 to 100, read-out: Plant response rating, Johnsongrass
In short: as §1

[7] = system: morningglory (Ipomoea coccinea); details: Ipomoea, pre-emergence, scale 0 to 100, read-out: Plant response rating, Morningglory
In short: as §1

[8] = system: giant foxtail (Setaria faberii); details: Setaria faberi, pre-emergence, scale 0 to 100, read-out: Plant response rating, Foxtail, Giant
In short: as §1

[9] = system: palmer pigweed (Amaranthus palmeri); details: Amaranthus palmeri, pre-emergence, scale 0 to 100, read-out: Plant response rating, Pigweed, Palmer
In short: as §1

[10] = system: sandbur (southern sandbur, Cenchrus echinatus); details: Cenchrus echinatus, pre-emergence, scale 0 to 100, read-out: Plant response rating, Sandbur
In short: as §1

[11] = system: large (Lg) crabgrass (Digitaria sanguinalis); details: Digitaria sanguinalis, pre-emergence, scale 0 to 100, read-out: Plant response rating, Crabgrass, Large
In short: as §1

[12] = system: ragweed (common ragweed, Ambrosia elatior); details: Ambrosia artemisiifolia, pre-emergence, scale 0 to 100, read-out: Plant response rating, Ragweed
In short: as §1

[13] = system: arrowleaf sida (Sida rhombifolia); details: Sida rhombifolia, pre-emergence, scale 0 to 100, read-out: Plant response rating, Arrowleaf Sida
In short: as §1

corn (Zea mays) = details: Zea mays, pre-emergence, scale 0 to 100
In short: as §1

[14] = system: dayflower (Virginia (VA) dayflower, Commelina virginica); details: Commelina virginica, pre-emergence, scale 0 to 100, read-out: Plant response rating, Dayflower, VA
In short: as §1

SMILES: Fc1cccc(Oc2ncc(Cl)cn2)c1-c1cc(C(F)(F)F)on1 [Compound 168, 5-chloro-2-[2-[5-(trifluoromethyl)-3-isoxazolyl]-3-fluorophenoxy]pyrimidine]
- pest or weed control at 16 g/ha ([1]; 16 g ai/ha Preemergence): 0%
- pest or weed control at 31 g/ha ([1]; 31 g ai/ha Preemergence): 25%
- pest or weed control at 62 g/ha ([1]; 62 g ai/ha Preemergence): 80%
- pest or weed control at 125 g/ha ([1]; 125 g ai/ha Preemergence): 100%
- pest or weed control at 16 g/ha ([2]; 16 g ai/ha Preemergence): 35%
- pest or weed control at 31 g/ha ([2]; 31 g ai/ha Preemergence): 95%
- pest or weed control at 125 g/ha ([2]; 125 g ai/ha Preemergence): 100%
- pest or weed control at 62 g/ha ([2]; Preemergence): 100%
- pest or weed control at 16 g/ha ([3]; 16 g ai/ha Preemergence): 50%
- pest or weed control at 31 g/ha ([3]; 31 g ai/ha Preemergence): 65%
- pest or weed control at 125 g/ha ([3]; 125 g ai/ha Preemergence): 100%
- pest or weed control at 62 g/ha ([3]; Preemergence): 70%
- pest or weed control at 16 g/ha ([4]; 16 g ai/ha Preemergence): 100%
- pest or weed control at 31 g/ha ([4]; 31 g ai/ha Preemergence): 100%
- pest or weed control at 125 g/ha ([4]; 125 g ai/ha Preemergence): 100%
- pest or weed control at 62 g/ha ([4]; Preemergence): 100%
- pest or weed control at 16 g/ha ([5]; 16 g ai/ha): 70%
- pest or weed control at 31 g/ha ([5]; 31 g ai/ha): 100%
- pest or weed control at 125 g/ha ([5]; 125 g ai/ha): 100%
- pest or weed control at 62 g/ha [5]: 100%
- plant injury at 16 g/ha (soybean (Glycine max); 16 g ai/ha Preemergence): 0%
- plant injury at 31 g/ha (soybean (Glycine max); 31 g ai/ha Preemergence): 0%
- plant injury at 125 g/ha (soybean (Glycine max); 125 g ai/ha Preemergence): 40%
- plant injury at 62 g/ha (soybean (Glycine max); Preemergence): 20%
- pest or weed control at 16 g/ha ([6]; 16 g ai/ha Preemergence): 0%
- pest or weed control at 31 g/ha ([6]; 31 g ai/ha Preemergence): 30%
- pest or weed control at 125 g/ha ([6]; 125 g ai/ha Preemergence): 100%
- pest or weed control at 62 g/ha ([6]; Preemergence): 35%
- pest or weed control at 16 g/ha ([7]; 16 g ai/ha Preemergence): 0%
- pest or weed control at 31 g/ha ([7]; 31 g ai/ha Preemergence): 0%
- pest or weed control at 125 g/ha ([7]; 125 g ai/ha Preemergence): 75%
- pest or weed control at 62 g/ha ([7]; Preemergence): 15%
- pest or weed control at 16 g/ha ([8]; 16 g ai/ha Preemergence): 65%
- pest or weed control at 31 g/ha ([8]; 31 g ai/ha Preemergence): 98%
- pest or weed control at 62 g/ha ([8]; 62 g ai/ha Preemergence): 100%
- pest or weed control at 125 g/ha ([8]; 125 g ai/ha Preemergence): 100%
- pest or weed control at 16 g/ha ([9]; 16 g ai/ha Preemergence): 98%
- pest or weed control at 31 g/ha ([9]; 31 g ai/ha Preemergence): 100%
- pest or weed control at 125 g/ha ([9]; 125 g ai/ha Preemergence): 100%
- pest or weed control at 62 g/ha ([9]; Preemergence): 100%
- pest or weed control at 16 g/ha ([10]; 16 g ai/ha Preemergence): 10%
- pest or weed control at 31 g/ha ([10]; 31 g ai/ha Preemergence): 30%
- pest or weed control at 125 g/ha ([10]; 125 g ai/ha Preemergence): 90%
- pest or weed control at 62 g/ha ([10]; Preemergence): 65%
- pest or weed control at 16 g/ha ([11]; 16 g ai/ha Preemergence): 65%
- pest or weed control at 31 g/ha ([11]; 31 g ai/ha Preemergence): 95%
- pest or weed control at 62 g/ha ([11]; 62 g ai/ha Preemergence): 98%
- pest or weed control at 125 g/ha ([11]; 125 g ai/ha Preemergence): 100%
- pest or weed control at 16 g/ha ([12]; 16 g ai/ha Preemergence): 10%
- pest or weed control at 31 g/ha ([12]; 31 g ai/ha Preemergence): 35%
- pest or weed control at 125 g/ha ([12]; 125 g ai/ha Preemergence): 98%
- pest or weed control at 62 g/ha ([12]; Preemergence): 65%
- pest or weed control at 16 g/ha ([13]; 16 g ai/ha Preemergence): 95%
- pest or weed control at 31 g/ha ([13]; 31 g ai/ha Preemergence): 100%
- pest or weed control at 62 g/ha ([13]; 62 g ai/ha Preemergence): 100%
- pest or weed control at 125 g/ha ([13]; 125 g ai/ha Preemergence): 100%
- Corn plant response rating (crop injury, 0 = no effect, 100 = complete kill) at 16 g/ha (corn (Zea mays); 16 g ai/ha Preemergence): 0%
- Corn plant response rating (crop injury, 0 = no effect, 100 = complete kill) at 31 g/ha (corn (Zea mays); 31 g ai/ha Preemergence): 0%
- Corn plant response rating (crop injury, 0 = no effect, 100 = complete kill) at 62 g/ha (corn (Zea mays); 62 g ai/ha Preemergence): 40%
- Corn plant response rating (crop injury, 0 = no effect, 100 = complete kill) at 125 g/ha (corn (Zea mays); 125 g ai/ha Preemergence): 35%
- pest or weed control at 16 g/ha ([14]; 16 g ai/ha Preemergence): 5%
- pest or weed control at 31 g/ha ([14]; 31 g ai/ha Preemergence): 10%
- pest or weed control at 62 g/ha ([14]; 62 g ai/ha Preemergence): 70%
- pest or weed control at 125 g/ha ([14]; 125 g ai/ha Preemergence): 90%
